# Reference: article PMC12734683 (Chemistry (Weinheim an Der Bergstrasse, Germany), 2025)
# What was measured:
# [1] = tested on: d(5′‐CGCGAATTCGCG‐3′)2 (DNA, duplex) CGCGAATTCGCG; assay: ethidium bromide displacement fluorescence quenching, double-log plot; conditions: 100 mM phosphate (cation not given); pH 7.0, 298 K; 20 μM DNA, 5.2 μM ethidium bromide displaced; apparent
# [2] = tested on: d(5′‐CGCGAATTCGCG‐3′)2 (DNA, duplex) CGCGAATTCGCG; assay: 1H NMR titration; conditions: 100 mM phosphate (cation not given), H2O:D2O 9:1, pH 7.0, 298 K, r = 0.5-2
# NIH-3T3 = assay: Cell growth assay (IncuCyte Zoom), cytotoxicity to normal fibroblasts; assay type: cell-based, mouse; conditions: NIHT‐3T3 normal fibroblasts
# Description: (§1) The human breast adenocarcinoma cell line MCF-7 and the mouse embryonic fibroblast cell line NIH-3T3 were cultured in high- glucose Dulbecco’s modified Eagle’s medium (DMEM) supplemented with 10% fetal bovine serum and 1% penicillin/ streptomycin. The human ovarian cancer cell line A2780 and its cisplatin resistant derivative (A2780cis-res) were maintained in RPMI-1640 medium supplemented with 10% fetal bovine serum and 1% penicillin/streptomycin. All cell lines were routinely passaged every 2 – 3 days, and incubated at 37 °C in a humidified atmosphere containing 5% CO2.
# (§2) Cell growth and the cytotoxic effects of the complexes were monitored using the IncuCyte Zoom system and software(Essen BioScience, Hertfordshire, United Kingdom), as previously described^84. The IC50 values of cisplatin and of the complexes were determined by fitting a log(concentration) versus normalized response curve using GraphPad Prism, version 8.01.
# A2780 = assay: Cell growth assay (IncuCyte Zoom), cytotoxicity; assay type: cell-based, human
# Description: as §1, §2
# A2780cis‐res = assay: Cell growth assay (IncuCyte Zoom), cytotoxicity; assay type: cell-based, human
# Description: as §1, §2
# MCF‐7 = assay: Cell growth assay (IncuCyte Zoom), cytotoxicity; assay type: cell-based, human
# Description: as §1, §2
compound,measurement,setting,value
Cc1ccc(C(C)C)cc1.Cc1ccc(C(C)C)cc1.[Ru+2].[Ru+2].[c-]1cccc2ccc3cccnc3c12.[c-]1cccc2ccc3cccnc3c12.c1cc(-c2ccncc2)ccn1,K b,[1],807.6 ± 19.9 × 10^3 M^-1
Cc1ccc(C(C)C)cc1.Cc1ccc(C(C)C)cc1.[Ru+2].[Ru+2].[c-]1cccc2ccc3cccnc3c12.[c-]1cccc2ccc3cccnc3c12.c1cc(CCCc2ccncc2)ccn1,K b,[1],602.8 ± 76.1 × 10^3 M^-1
Cc1ccc(C(C)C)cc1.Cc1ccc(C(C)C)cc1.[Ru+2].[Ru+2].[c-]1cccc2ccc3cccnc3c12.[c-]1cccc2ccc3cccnc3c12.c1cc(CCc2ccncc2)ccn1,K b,[1],298.4 ± 4.3 × 10^3 M^-1
Cc1ccc(C(C)C)cc1.Cc1ccc(C(C)C)cc1.[Ru+2].[Ru+2].[c-]1cccc2ccc3cccnc3c12.c1cc(-c2ccncc2)ccn1.c1cnc2c(c1)ccc1cccnc12,K b,[1],5.59 ± 0.21 × 10^3 M^-1
same,binding,[2]; minor-groove intercalation,yes
Cc1ccc(C(C)C)cc1.Cc1ccc(C(C)C)cc1.[Ru+2].[Ru+2].[c-]1cccc2ccc3cccnc3c12.c1cc(CCCc2ccncc2)ccn1.c1cnc2c(c1)ccc1cccnc12,K b,[1],6.70 ± 0.58 × 10^3 M^-1
same,binding,[2]; groove binding,yes
Cc1ccc(C(C)C)cc1.Cc1ccc(C(C)C)cc1.[Ru+2].[Ru+2].[c-]1cccc2ccc3cccnc3c12.c1cc(CCc2ccncc2)ccn1.c1cnc2c(c1)ccc1cccnc12,K b,[1],28.51 ± 0.97 × 10^3 M^-1
same,binding,[2]; groove binding at duplex ends,yes
"N.N.[Cl][Pt][Cl] [cisplatin, reference compound]",IC50,NIH-3T3,3.02 ± 0.36 µM
same,Selectivity index IC50(NIHT‐3T3)/IC50(A2780),A2780,0.2
same,IC50,A2780; A2780 cells,2.54 ± 0.11 µM
same,Resistant factor IC50 (A2780cisR)/IC50(A2780),A2780cis‐res,7.3
same,IC50,A2780cis‐res; A2780cis‐res cells,18.4 ± 1.59 µM
same,Selectivity index IC50(NIHT‐3T3)/IC50(A2780cis‐res),A2780cis‐res; third of three values in the cell,0.2
same,IC50,MCF‐7; MCF‐7 cells,14.6 ± 1.25 µM
same,Selectivity index IC50(NIHT‐3T3)/IC50(MCF‐7),MCF‐7; first of three values in the cell,1.2
